Assay results published in patent US20170209574A1, “COMBINATION THERAPIES” (Novartis AG, priority 2014, published 2017).

What was measured:
PD-L1 (CD274) [1] = experiment: TaqMan RT PCR of PD-L1 mRNA in UKE-1 tumor xenograft model; type: in vivo, human; settings: tumor xenograft model bearing UKE-1 (MPN line with JAK2V617F mutation); FIG. 6
Description: (§1) TaqMan RT PCR assays were developed to detect changes of expression levels of PD-L1 (CD274) in cell lines and xenograft tumors. mRNA was isolated from frozen cell pellets or tumor fragments using the Qiagen RNeasy Mini kit. Isolated RNA was frozen at −80° C. RNA quality was checked and RNA was quantified using a 2100 Agilent Bioanalyzer following the protocol for the Agilent RNA 6000 Nano Kit. cDNA was prepared using a High Capacity RNA- to cDNA Kit (Applied Biosystems).
(§2) Real-time PCR reactions were carried out in 20 μl total volume, including 10 μl of Universal PCR master mix (Applied Biosystems), 1 μl of human PD-L1 (CD274) probe/primer set (Applied Biosystems), and 8 μl of cDNA. Each sample was run in triplicate. The amount of cDNA produced from 25-50 ng of RNA in the reverse transcription reaction was used in each PCR reaction. Due to difference in mRNA levels between PD-L1 and GAPDH, the two real-time PCR reactions were done in separate tubes using same amount of cDNA. The real-time PCR reaction was run on the C1000 Thermal Cycle (BioRad) with the cycle program as follows: a 10 minute incubation at 95° C. followed by 40 cycles of 95° C. for 15 seconds and 60° C. for 1 minute. After the reaction was complete, the PD-L1 average Ct was normalized relative to each Ct value from the GAPDH reference reaction. Each normalized logarithmic value was then converted into a linear value.

[2] = tested on: EGFR mutant (L858R, ex19del and T790M) cancer models; settings: cited from earlier work
PD-L1 (CD274) [3] = experiment: TaqMan RT PCR of PD-L1 mRNA in LOXIMV1 tumor xenograft model; type: in vivo, human; settings: tumor xenograft model bearing LOXIMV1 (BRAF mutant melanoma); FIG. 4
Description: as §1, §2

PD-L1 (CD274) [4] = experiment: TaqMan RT PCR of PD-L1 mRNA in Hs.746.T tumor xenograft; type: in vivo, human; settings: Hs.746.T tumor (gastric cancer cell with cMET amplification & mutation) xenograft; FIG. 2
Description: as §1, §2

PD-L1 (CD274) [5] = experiment: Flow cytometry of PD-L1 surface expression in EBC-1 cells treated with INC280; type: cell-based, human; settings: EBC-1 cells (NSCLC with cMET amplification), in vitro; INC280 10, 100, 1000 nM for 24, 48, 72 hours; FIG. 1
Description: PD-L1 (CD274) expression was analyzed in cancer cell lines treated with INC280. Cells were obtained from ATCC and cultured in vitro following ATCC directions. The cell lines used were previously characterized by the Cancer Cell Line Encyclopedia Project (www.broadinstitute.org/ccle/home).
Cells plated in six-well culture plates were treated with the INC280 at different concentrations (10 nM, 100 nM, and 1000 nM) for 24, 48 and 72 hours. Equal amount of vehicle (DMSO) was used as a control. Cells were washed with PBS and then harvested using a cell scraper.
For each reaction, 0.5-1×10^6 cells were stained with 200 μL of anti-human monoclonal PD-L1-PE antibody, clone M1H1 (BD) for 30-60 minutes at 4° C. Cells were washed twice and data was acquired using a Canto II with FACSDiva software (BD Bioscience). Data analysis was performed using FlowJo software (Tree Star). Mean fluorescence intensity (MFI) was determined by gating on single cells. Unstained cells were used as a gating control.

TIM-3 = experiment: CyTOF mass cytometry of PBMCs (immune checkpoint modulation); type: cell-based, human; settings: PBMCs +/- 100 ng/mL anti-CD3, 100 nM LCL161, 4 days; monocytes, naive, memory and activated T killer cells, memory T helper cells; FIG. 9
Description: PBMCs were isolated from healthy donors via BD CPT™ vacutainer tubes. 1 million cells/mL were plated in RPMI+10% FBS+/−100 ng/mL of anti-CD3 antibody+/−DMSO or 100 nM LCL161 for 4 days. Cells were harvested, washed, stained with a panel of metal-conjugated antibodies listed below in Table 2 for analysis by CyTOF mass cytometry. Data were visualized by SPADE using Cytobank webware. SPADE and its use are described, e.g., in Peng et al., Nature Biotechnology, 29, 886-891 (2011); Sean et al, Science, 332 (6030): 687-696 (2011).
A Panel of Metal-Conjugated Antibodies for Analysis by CyTOF Mass Cytometry

[6] = tested on: human CD4+ and CD8+ T cells; experiment: CFSE proliferation analysis of anti-CD3 stimulated PBMCs (FACS); type: cell-based; settings: 1 ug/ml soluble anti-CD3, increasing concentrations of LCL161, 5 days
Description: For the proliferation analyses, cells were labeled with 5 uM carboxyfluorescein diacetate succinimidyl ester (CFSE) before stimulation, and then treated with 1 ug/ml soluble anti-CD3. Covalently bound CFSE is divided equally between daughter cells, allowing discrimination of successive rounds of cell division and to track proliferating cells (Lyons et al., Curr Protoc Cytom. 2013; Chapter 9: Unit 9.11). PBMCs were stimulated in the presence of increasing concentrations of LCL161 (or DMSO control) for 5 days. At day 5 post stimulation, cells were harvested, stained with anti-CD4, -CD8, -PD-1, or -CD127, followed by FACS analysis. Results for one donor are shown. Similar results were obtained with PBMCs from 4 other donors.

PBMCs = experiment: Cytokine analysis (Luminex) of anti-CD3 stimulated PBMCs; type: cell-based, human; settings: suboptimal anti-CD3 0.005 ug/ml, LCL161 1, 50, 100 or 1000 nM, day 5 supernatants
Description: Blood was obtained from normal healthy donors. Peripheral blood mononuclear cells (PBMCs) were isolated by centrifuging blood in CPT™ tubes for 18 minutes at 1800×g. Cells were washed twice with cold PBS, enumerated and then stimulated in 96-well round bottomed tissue culture plates (500,000 cells per well) for 5 days at 37° C., 5% CO2. Cells were either left untreated (DMSO control) or treated with different concentrations of LCL161 (1, 50, 100, or 1000 nM). For the cytokine analyses, cells were stimulated with a suboptimal anti-CD3 stimulus (0.005 ug/ml of soluble clone UCHT1). At day 5 post stimulation, supernatants were collected and analyzed for cytokines (Luminex).

PD-L1 (CD274) [7] = experiment: TaqMan RT PCR of PD-L1 mRNA in HEYA8 tumor xenograft model; type: in vivo, human; settings: tumor xenograft model bearing HEYA8 (KRAS mutant ovarian cancer); FIG. 5
Description: as §1, §2

PD-L1 (CD274) [8] = experiment: TaqMan RT PCR of PD-L1 mRNA in H3122 cells in vitro; type: cell-based, human; settings: H3122 (NSCLC with ALK translocation) in vitro; FIG. 3
Description: as §1, §2

[9] = tested on: ALK-positive NSCLC patients; experiment: Clinical study of LDK378 in ALK-positive NSCLC patients; type: in vivo, human; settings: 750 mg; 53.3% of the patients censored

N#CC[C@H](C1CCCC1)n1cc(-c2ncnc3[nH]ccc23)cn1 [INC424, (3R)-3-cyclopentyl-3-[4-(7H-pyrrolo-[2,3-d]pyrimidin-4-yl)-1H-pyrazol-1-yl]propanenitrile]
PD-L1 mRNA (PD-L1 (CD274) [1]): Downregulation of PD-L1 mRNA

Cc1cc(C(=O)Nc2nc3cccc(Cl)c3n2[C@@H]2CCCCN(C(=O)/C=C/CN(C)C)C2)ccn1 [EGF816, (R,E)-N-(7-chloro-1-(1-(4-(dimethylamino)but-2-enoyl)azepan-3-yl)-1H-benzo[d]imidazol-2-yl)-2-methylisonicotinamide]
efficacy in EGFR mutant cancer models ([2]; L858R, ex19del and T790M, in vitro and in vivo): significant efficacy
WT EGFR inhibition ([2]; at clinically relevant efficacious concentrations): no indication of WT EGFR inhibition

COC(=O)N[C@@H](C)CNc1nccc(-c2cn(C(C)C)nc2-c2cc(Cl)cc(NS(C)(=O)=O)c2F)n1 [LGX818, methyl (S)-(1-((4-(3-(5-chloro-2-fluoro-3-(methylsulfonamido)phenyl)-1-isopropyl-1H-pyrazol-4-yl)pyrimidin-2-yl)amino)propan-2-yl)carbamate]
PD-L1 mRNA (PD-L1 (CD274) [3]): Downregulation of PD-L1 mRNA

CNC(=O)c1ccc(-c2cnc3ncc(Cc4ccc5ncccc5c4)n3n2)cc1F [INC280, 2-fluoro-N-methyl-4-[7-(quinolin-6-ylmethyl)imidazo[1,2-b][1,2,4]triazin-2-yl]benzamide]
PD-L1 expression (mRNA) (PD-L1 (CD274) [4]): Inhibition of PD-L1 expression (mRNA)
surface expression of PD-L1 (flow cytometry) (PD-L1 (CD274) [5]): significant downregulation of surface expression of PD-L1

CN[C@@H](C)C(=O)N[C@H](C(=O)N1CCC[C@H]1c1nc(C(=O)c2ccc(F)cc2)cs1)C1CCCCC1 [LCL161, (S)—N—((S)-1-cyclohexyl-2-((S)-2-(4-(4-fluorobenzoyl)thiazol-2-yl)pyrrolidin-1-yl)-2-oxoethyl)-2-(methylamino)propanamide]
TIM-3 expression (TIM-3): increase in TIM-3 expression
proliferation of CD4+ T cells (CFSE dilution) ([6]; FIG. 8A): enhanced proliferation
proliferation of CD8+ T cells (CFSE dilution) ([6]; FIG. 8B): enhanced proliferation
IFN-gamma production (PBMCs; FIG. 7A): increases in immune-active cytokine, IFN-gamma
IL-10 production (PBMCs; FIG. 7B): reduction in immune-suppressive cytokine IL-10

Cn1cnc2c(F)c(Nc3ccc(Br)cc3F)c(C(=O)NOCCO)cc21 [MEK162, 5-((4-bromo-2-fluorophenyl)amino)-4-fluoro-N-(2-hydroxyethoxy)-1-methyl-1H-benzo[d]imidazole-6-carboxamide]
PD-L1 mRNA (PD-L1 (CD274) [7]): Downregulation of PD-L1 mRNA

Cc1cc(Nc2ncc(Cl)c(Nc3ccccc3S(=O)(=O)C(C)C)n2)c(OC(C)C)cc1C1CCNCC1 [LDK378, 5-chloro-N2-(2-isopropoxy-5-methyl-4-(piperidin-4-yl)-phenyl)-N4-[2-(propane-2-sulfonyl)-phenyl]-pyrimidine-2,4-diamine]
PD-L1 mRNA (PD-L1 (CD274) [8]): Inhibition of PD-L1 mRNA
median progression-free survival (PFS) [9]: 8.21 months
